Tests used:
Type in all cases: cell-based
[1] = tested on: sICAM-1; test: Measurement of sICAM-1 levels in culture supernatants (AlphaLisa); settings: elastase-challenged BEAS-2B cells, 6 h, P<0.05
Method: A significant difference in expression of fully glycosylated mICAM-1 (˜100 kDa) was observed between the control and elastase treatment, with maximum expression in the former. […] This inverse relationship is consistent with measurements of sICAM-1 levels in the culture supernatants and provided internal validation of the direct effects of elastase with the proteolytic cleavage of ICAM-1.
BEAS-2B cells (60,000) were seeded in collagen-coated 24-well plates. After overnight incubation, the media was replaced with supplement-free media and the cells were further incubated for 24 h. At the end of the incubation period, cells were replenished with new supplement-free media prior to treatment. Stock human neutrophil elastase solution was prepared in sodium acetate and test aliquots were further diluted in supplement-free medium. […] Control cells were treated with DMSO (1%) and sodium acetate in supplement-free medium (4%). The cells were incubated for 6 h. Culture supernatants were collected and sICAM-1 levels were determined using ICAM-1 AlphaLisa® Kit (Perkin Elmer) according to the manufacturer's instruction.

[2] = tested on: BEAS-2B cells; test: Morphology of elastase-treated bronchial epithelial cells; settings: within 2 h of treatment with human neutrophil elastase
Method: FIG. 4. Human neutrophil elastase induces changes in morphology of BEAS-2B cells within 2 h of treatment.
An apparent change in cellular morphology of bronchial epithelial cells was observed within 2 h of elastase treatment, with cells becoming rounded, in contrast to the elongated appearance of control cells (FIG. 4). […] These observations indicated intercellular adhesion molecules as a possible direct target of exogenous elastase in bronchial epithelial cells. […] Several proteases have been implicated in the posttranslational modification of membrane-bound ICAM-1 (mICAM-1) to soluble ICAM-1 (sICAM-1), depending on the cell type. In endothelial, fibroblast and astrocyte cultures, sICAM-1 generation is mediated by a matrix metalloprotease or ADAM 17^24.

[3] = tested on: BEAS-2B cells; test: Cell viability (MTT) assay of bronchial epithelial cells challenged with elastase; settings: within 24 h of treatment, read-out: IC50 of anti-proliferative activity on bronchial epithelial cells
Method: FIG. 3. […] HNE induced cell death after 24 h and this was alleviated by cotreatment with compound 1.
Bronchial epithelial cells (BEAS-2B, ATCC) were grown in bronchial epithelial basal media (BEBM, Lonza) supplemented with bronchial epithelial growth factors (Lonza) under a humidified environment with 5% CO2 at 37° C. BEAS-2B (5,000) cells were seeded in collagen-coated 96-well plates and treated with varying concentrations of elastase after 24 h of seeding. […] The cells were incubated for an additional 24 h before the addition of the MTT reagent. Cell viability was measured according to the manufacturer's instructions (Promega). IC50 calculations were done by GraphPad Prism 5.03 based on duplicate experiments.

Row | Compound | Concentration giving significant decrease of sICAM-1 levels [1] | Effect on elastase-induced change in morphology of BEAS-2B cells [2] | IC50 [3]
1 | CC(C)(C)C(=O)Oc1ccc(S(=O)(=O)Nc2ccccc2C(=O)NCC(=O)O)cc1 [sivelestat] | 320 nM | reverted | 
2 | Elastase: human neutrophil elastase used to challenge bronchial epithelial cells |  |  | 0.082 µM
